Experimental data: publication PMC5612656, “In vitro and in vivo effects of 2,4 diaminoquinazoline inhibitors of the decapping scavenger enzyme DcpS: Context-specific modulation of SMN transcript levels” (PLoS ONE, 2017)

System: spinal cord transcriptome
Assay: RNA-Seq of spinal cord tissue from 2B/- and 2B/+ mice
Format: in vivo, mouse
Details: 2B-Veh vs 2B-RG3039

Nc1nc(N)c2c(OCC3CCN(Cc4c(Cl)cccc4Cl)CC3)cccc2n1 [RG3039] was tested, and the “log2(fold-change) Gm10309” value was -1.704, the “log2(fold-change) Gm11681” value was -1.051 and the “log2(fold-change) Gm13066” value was -1.415. The “log2(fold-change) Gm16316” value was -0.9137, the “log2(fold-change) Gm16958” value was -0.6452 and the “log2(fold-change) Gm21984” value was -0.8301. The “log2(fold-change) Gm26645” value was 0.5748, the “log2(fold-change) Gp2” value was 1.536 and the “log2(fold-change) Gpr50” value was 0.6598. The “log2(fold-change) Gpx3” value was -0.9006, the “log2(fold-change) Gsg2” value was 1 and the “log2(fold-change) Gstm1” value was -0.9261. The “log2(fold-change) Gsx1” value was 1.082, the “log2(fold-change) Hbegf” value was 0.4821 and the “log2(fold-change) Heph” value was -0.6747. The “log2(fold-change) Hes5” value was 1.011, the “log2(fold-change) Heyl” value was 0.7294 and the “log2(fold-change) Hif3a” value was -1.3266. The “log2(fold-change) Hist1h1c” value was -0.9093, the “log2(fold-change) Hist1h4h” value was -0.4829 and the “log2(fold-change) Hpgd” value was 1.149. The “log2(fold-change) Hr” value was -1.031, the “log2(fold-change) Hsf3” value was -1.087 and the “log2(fold-change) Iapp” value was -0.9349. For the same compound, the “log2(fold-change) Id3” value was 0.7631, the “log2(fold-change) Ier5” value was 0.6487 and the “log2(fold-change) Igf1” value was 0.4613. For the same compound, the “log2(fold-change) Igsf1” value was 0.614, the “log2(fold-change) Il12rb1” value was -1.3 and the “log2(fold-change) Itga6” value was 0.6885. The “log2(fold-change) Itgb3” value was 0.5631, the “log2(fold-change) Kcna5” value was -1.0224 and the “log2(fold-change) Kcne4” value was 0.8611. The “log2(fold-change) Kdelr3” value was 0.5886, the “log2(fold-change) Kdm4dl” value was -1.255 and the “log2(fold-change) Kif2c” value was 0.8365. The “log2(fold-change) Klf15” value was -1.065, the “log2(fold-change) Klhl30” value was 0.8074 and the “log2(fold-change) LRRC8A” value was -0.627. The “log2(fold-change) Loxl1” value was 0.7115, the “log2(fold-change) Lrrc8a” value was -0.9652 and the “log2(fold-change) Map3k6” value was -2.942. The “log2(fold-change) Matn1” value was -1.5615, the “log2(fold-change) Mcm6” value was 0.8445 and the “log2(fold-change) Mertk” value was -0.6404. For the same compound, the “log2(fold-change) Mex3a” value was 0.9304, the “log2(fold-change) Mgmt” value was -0.5604 and the “log2(fold-change) Mki67” value was 0.4816. For the same compound, the “log2(fold-change) Mmp14” value was 0.9436, the “log2(fold-change) Mrgprd” value was 1.807 and the “log2(fold-change) Mrpl41” value was -1.248. For the same compound, the “log2(fold-change) Mycn” value was 0.9874, the “log2(fold-change) Ncan” value was 0.7942 and the “log2(fold-change) Ncapg” value was 0.8309. For the same compound, the “log2(fold-change) Neil3” value was 0.7885, the “log2(fold-change) Nes” value was 0.5009 and the “log2(fold-change) Notum” value was 0.8827. For the same compound, the “log2(fold-change) Nusap1” value was 0.4877, the “log2(fold-change) Otoa” value was -1.049 and the “log2(fold-change) Pappa” value was 0.5579. For the same compound, the “log2(fold-change) Pbk” value was 0.5785, the “log2(fold-change) Pdk4” value was -1.799 and the “log2(fold-change) Per1” value was -0.8684. The “log2(fold-change) Phactr3” value was -0.7376, the “log2(fold-change) Phyhd1” value was -0.7387 and the “log2(fold-change) Pilrb2” value was -1.585. The “log2(fold-change) Pirt” value was 0.7729, the “log2(fold-change) Pmaip1” value was -0.9334 and the “log2(fold-change) Pmp2” value was 1.429. The “log2(fold-change) Pnpla2” value was -1.095, the “log2(fold-change) Pnpla7” value was -0.626 and the “log2(fold-change) Polr3e” value was -1.443. For the same compound, the “log2(fold-change) Ppp1r1b” value was -1.252, the “log2(fold-change) Prc1” value was 0.5813 and the “log2(fold-change) Prodh” value was -0.8352. The “log2(fold-change) Pxmp2” value was -0.9238, the “log2(fold-change) Pycr1” value was 1.135 and the “log2(fold-change) Rab11fip1” value was -0.4528. The “log2(fold-change) Rasl2-9” value was -0.693, the “log2(fold-change) Reg3b” value was 1.9386 and the “log2(fold-change) Rnase1” value was -0.7662. For the same compound, the “log2(fold-change) Rorc” value was -0.6702, the “log2(fold-change) Rsad2” value was 0.8406 and the “log2(fold-change) Scn10a” value was 1.7. The “log2(fold-change) Scrg1” value was -0.8008, the “log2(fold-change) Sdpr” value was -0.7672 and the “log2(fold-change) Sds” value was -2.356. For the same compound, the “log2(fold-change) Serpinb5” value was -1.293, the “log2(fold-change) Serpinh1” value was 0.3762 and the “log2(fold-change) Sgk1” value was -1.812. For the same compound, the “log2(fold-change) Shroom1” value was -0.6614, the “log2(fold-change) Slc13a3” value was 0.4446 and the “log2(fold-change) Slc13a5” value was 0.8562.
